Measurements: article PMC12677652, “Procyanidin B3 and Its Derivatives Alleviate Neuronal Injury by Targeting G3BP1 for Ischemic Stroke Therapy” (Advanced Science, 2025)

Key:
OGD/R‐treated HT22 cells = assay: Neuroprotective effect on OGD/R-treated HT22 cells, cell viability by CCK-8; format: cell-based; conditions: 6 h OGD; for viability at 2 µM / viability at 20 µM: Mus musculus, HT-22, 24 h reoxygenation with compound, relative to control cells, mean ± S.D., n = 3
Description: HT22 cells were washed with phosphate buffered saline (PBS), then DMEM sugar‐free medium (Gibco, USA) was added and placed in the anaerobic incubator of 5% CO2, 1% O2, and 37 °C for 6 h. PB3 or other compounds were previously dissolved in DMEM/F‐12 with 10% FBS and 1% penicillin/streptomycin. After undergoing OGD for 6 h, the medium was replaced by DMEM/F‐12 with 10% FBS and 1% penicillin/streptomycin containing PB3 or other compounds and kept in a humidified 5% CO2, 37 °C incubator for 24 h.
The CCK‐8 assay kit (Yeasen, China) was used to assess cell viability. All operations were performed following instructions. HT22 cells were seeded into the 96‐well plate (3000 cells per well). The cells were cultured at 37 °C with 5% CO2 in a humidified incubator overnight. After 6 h of OGD, the medium was replaced by DMEM/F‐12 with 10% FBS and 1% penicillin/streptomycin containing PB3 or other compounds and kept in a humidified 5% CO2, 37 °C incubator for 24 h. Then, the cells were washed with PBS, the medium was replaced with DMEM/F‐12 with 10% FBS and 1% penicillin/streptomycin containing 10% CCK‐8 solution, and incubated for 1 h at 37 °C. The absorbance was assessed by a Synergy H1 multi‐mode microplate reader (BioTek, USA) at 450 nm.

tMCAO mice = assay: Long-term neurological recovery after tMCAO; format: in vivo; conditions: 48 mg/kg daily, i.p.
Description: The modified neurological severity score was applied according to the previous report.^[ [63] ^] The range of the neurological function score extends from 0 to 18 points. A higher score represents more severe neurological deficits. In the rotarod test, according to the previous report,^[ [64] ^] mice were tested under the accelerating rotor mode with acceleration from 5 to 20 rpm. The final score for statistical analysis was expressed as the mean time that mice could remain on the rod.

[1] = biological target: T1, recombinant human G3BP1 protein (Homo sapiens, UniProt Q13283); assay: SPR analysis of binding to G3BP1 (Biacore T200, CM5 chip); conditions: 1:1 binding model, running buffer PBS
T1 construct: purchased Hubei Ipodix Biotechnology Co., Ltd. (China)
Description: The SPR analyses were carried out using a Biacore T200 instrument (GE Healthcare, USA) with the Series Sensor Chip CM5 (GE Healthcare, USA). The recombinant human G3BP1 protein was purchased from Hubei Ipodix Biotechnology Co., Ltd. (China). The protein was immobilized on the chip using an amine coupling kit (GE Healthcare, USA). The blank channel served as the negative control. The binding experiments were performed at a flow rate of 30 µL min^−1. For the measurement of the kinetic parameters of PB3 and 6c, gradient dilutions of PB3 and 6c were injected into the immobilized protein. The running buffer was PBS. All biosensor data were processed and analyzed with Biacore T200 Evaluation software version 3.2 (GE Healthcare, USA) and fitted by a 1:1 binding model.

[2] = system: Primary rat cortical neurons; assay: Cytotoxicity (50% cytotoxic concentration) by CCK-8 assay; format: cell-based; conditions: 24 h exposure
Description: Additionally, we investigated the effects of PB3, 6c, and EDA on apoptosis at a concentration of 50 µM. […] Therefore, the improvement in target accessibility could be one of the main reasons for the enhanced activity of 6c. The binding mode of 6c and the NTF2L domain of G3BP1 was analyzed by molecular docking (Figure S10B, Supporting Information). […] Cytotoxicities of 1 and 6c were determined by the detection of 50% cytotoxic concentration using the CCK‐8 assay. Primary rat cortical neurons ^[ [10] ^] were exposed to 200 µM gradient concentrations of compounds for 24 h.

G3BP1 = biological target: T2, G3BP1 (Mus musculus, UniProt P97855); assay: Cellular thermal shift assay; format: binding; conditions: HT22 cell lysate
T2 construct: endogenous in cells; host or cells: HT22 cell lysate
Description: HT22 cells were grown to 90% confluency and harvested by trypsin and resuspended in 1 mL PBS. The samples were subjected to three freeze–thaw cycles in liquid nitrogen. Each cell lysate was centrifuged (12000 g for 30 min at 4 °C), and the supernatant was collected. The supernatants were treated with PB3 (or PBS control) for 20 min. Subsequently, they were aliquoted into Eppendorf tubes and heated for 3 min to 44, 48, 52, 56, or 60 °C. The soluble fractions were analyzed by SDS‐polyacrylamide gel electrophoresis and immunoblotted with anti‐G3BP1 antibody.

[3] = system: eIF2α phosphatases (GADD34 and PPP1R15B/CReP) and eIF2α kinases (PERK and GCN2); assay: RT-qPCR of key factors regulating SG dynamics; format: cell-based; conditions: 50 µM, 6 h of reperfusion following OGD, HT22 cells
Description: (§1) Total RNA from HT22 cells was extracted with Trizol. The concentration and purity of RNA were determined by Nanodrop (Thermo Scientific, USA), and RNA was reverse transcribed by PrimeScript Reverse Transcription Master Mix (TaKaRa, Japan). Then RT‐qPCR was performed using Hieff qPCR SYBR Green Master Mix (Yeasen, China). The expression level of the transcripts was normalized to the constitutive expression level of β‐actin. The primers used for amplification are listed in Table S4 (Supporting Information).

G3BP1‐bound mRNA = assay: RIP assay with RT-qPCR of G3BP1-bound mRNAs; format: cell-based; conditions: 50 µM, 6 h of reperfusion following OGD
Description: as §1
RIP assay was performed with the BeyoRIP RIP Assay Kit (Beyotime, China) using the manufacturer's protocol. HT22 cells were washed with PBS and centrifuged, then the cell was resuspended in complete lysis buffer. 3–5 µg antibody was pre‐bound to protein A/G agarose beads in NT2 wash buffer for 0.5 h and then incubated with 270 µL cell lysates for 4 h at 4 °C with rotation, and RNA was eluted from the beads by incubating with 100 µL elution buffer for 0.5 h at 55 °C. The eluted RNA was dissolved with RNase‐free water. Enrichment of certain fragments was determined by RT‐qPCR.

T1 sequence (Q13283 whole entry): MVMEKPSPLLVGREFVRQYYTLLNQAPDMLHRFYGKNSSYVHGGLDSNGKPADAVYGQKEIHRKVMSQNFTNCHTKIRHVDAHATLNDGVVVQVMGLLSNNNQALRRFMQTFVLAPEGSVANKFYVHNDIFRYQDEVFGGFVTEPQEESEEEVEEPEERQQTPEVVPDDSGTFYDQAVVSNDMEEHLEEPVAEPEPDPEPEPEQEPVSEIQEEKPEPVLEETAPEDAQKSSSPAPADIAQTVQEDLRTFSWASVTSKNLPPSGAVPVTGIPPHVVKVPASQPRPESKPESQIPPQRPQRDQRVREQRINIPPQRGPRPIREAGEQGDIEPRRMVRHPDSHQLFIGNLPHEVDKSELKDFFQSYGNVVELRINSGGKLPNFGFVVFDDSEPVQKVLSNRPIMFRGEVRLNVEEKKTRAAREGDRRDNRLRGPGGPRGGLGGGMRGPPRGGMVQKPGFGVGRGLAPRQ
T2 sequence (P97855 whole entry): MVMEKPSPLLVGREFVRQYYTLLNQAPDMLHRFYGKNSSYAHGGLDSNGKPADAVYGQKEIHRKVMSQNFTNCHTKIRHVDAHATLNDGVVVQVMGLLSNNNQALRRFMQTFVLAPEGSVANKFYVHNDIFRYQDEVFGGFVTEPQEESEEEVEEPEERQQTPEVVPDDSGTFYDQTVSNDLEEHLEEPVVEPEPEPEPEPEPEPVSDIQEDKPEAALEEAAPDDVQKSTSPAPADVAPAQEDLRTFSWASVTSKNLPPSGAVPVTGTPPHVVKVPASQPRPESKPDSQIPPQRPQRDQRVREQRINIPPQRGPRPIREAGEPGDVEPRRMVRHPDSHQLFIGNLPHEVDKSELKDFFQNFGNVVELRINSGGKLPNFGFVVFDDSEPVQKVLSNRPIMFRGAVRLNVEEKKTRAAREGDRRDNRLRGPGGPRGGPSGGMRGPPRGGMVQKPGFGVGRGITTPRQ

| Kd [1] [nM] | thermal stability of G3BP1 (G3BP1) | Compound | viability at 2 µM (OGD/R‐treated HT22 cells) [%] | viability at 20 µM (OGD/R‐treated HT22 cells) [%] | body weight (tMCAO mice) | modified neurological severity scores (tMCAO mice) | rotarod test (tMCAO mice; at the end of treatment) | 50% cytotoxic concentration [2] | expression of eIF2α phosphatases (GADD34 and PPP1R15B/CReP) [3] | expression of two eIF2α kinases (PERK and GCN2) [3] | cell viability rate (OGD/R‐treated HT22 cells; PB3 at 20 to 400 µM, 24 h treatment) | level of G3BP1‐bound mRNA (G3BP1‐bound mRNA) |
| --- | --- | --- | --- | --- | --- | --- | --- | --- | --- | --- | --- | --- |
| 58 | – | CC(C)c1c(O)cc(O)c2c1O[C@H](c1ccc(O)c(O)c1)[C@@H](O)[C@@H]2c1c(O)cc(O)c2c1O[C@H](c1ccc(O)c(O)c1)[C@@H](O)C2 [Compound 6c, 8‐Isopropyl‐(+)‐Catechin‐(4α,8)‐(+)‐Catechin] | 66 ± 1.97 | 83.6 ± 4.34 | mitigated the tendency toward weight loss | lower scores than the tMCAO group | showed improvements compared with the tMCAO group | over 200 µM | – | – | – | – |
| 44 | enhanced the thermal stability of G3BP1 | Oc1cc(O)c2c(c1)O[C@H](c1ccc(O)c(O)c1)[C@@H](O)[C@@H]2c1c(O)cc(O)c2c1O[C@H](c1ccc(O)c(O)c1)[C@@H](O)C2 [Compound 1, procyanidin B3] | 63.9 ± 3.36 | 70.9 ± 6.71 | – | – | – | over 200 µM | significantly lower | significantly higher | significantly improve cell viability rate | higher |
